Measured values: publication PMC9599613 (Biomolecules, 2022)

Experiments:
[1] = biological target: COX-1 (Homo sapiens, UniProt P23219); experiment: biochemical; details: read-out: % COX-1 Inhibition
Method: (§1) The Cyclooxygenase enzymes (COX-1 and 2) inhibitory potential of our test compounds was determined according to the previously reported procedure. […] The enzyme solutions with a concentration of 0.7–0.8 μg/10 μL (COX-1) and 300 U/mL (COX-2) were prepared. To start the assay, for enzyme activation, 10 µL enzyme solution (kept in a cool temperature of 4 °C for 5 min) and cofactor containing hematin (50 µL, 1 mM), glutathione (0.9 mM) and TMPD in a Tris-buffer (0.1 M) with a pH 8.0 was added. After that, 60 µL of the enzyme solution was added to 20 µL of the test samples of various concentrations and incubated at room temperature for 5 to 10 min. Then, 20 µL of arachidonic acid (30 mM) was added to start the reaction. The mixture was then again incubated for 15 min at 37 °C, and absorbances were measured at 570 nm with UV-visible spectrophotometer. […] The % enzyme inhibitions were calculated by using the previously reported formula.

[2] = biological target: T1, COX-2 (Homo sapiens, UniProt P35354); experiment: biochemical
T1 sequence (P35354 18-604): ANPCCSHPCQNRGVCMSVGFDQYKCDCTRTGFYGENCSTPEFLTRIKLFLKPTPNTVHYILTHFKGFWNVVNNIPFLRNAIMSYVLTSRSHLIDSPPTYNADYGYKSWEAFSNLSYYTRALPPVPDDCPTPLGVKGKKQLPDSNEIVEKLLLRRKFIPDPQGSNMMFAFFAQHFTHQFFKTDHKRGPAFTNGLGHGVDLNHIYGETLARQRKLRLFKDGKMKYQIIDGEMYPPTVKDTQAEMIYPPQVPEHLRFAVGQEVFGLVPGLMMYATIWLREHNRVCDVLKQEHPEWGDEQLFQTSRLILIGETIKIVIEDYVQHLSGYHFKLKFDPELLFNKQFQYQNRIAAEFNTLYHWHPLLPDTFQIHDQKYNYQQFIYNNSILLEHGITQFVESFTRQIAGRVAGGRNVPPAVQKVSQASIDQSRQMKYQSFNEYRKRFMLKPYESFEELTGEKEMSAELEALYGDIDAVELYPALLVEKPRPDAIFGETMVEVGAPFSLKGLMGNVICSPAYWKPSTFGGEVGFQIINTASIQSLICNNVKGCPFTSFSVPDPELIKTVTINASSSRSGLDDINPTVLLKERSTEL
Method: as §1

Sequence of COX-1 (P23219 24-599): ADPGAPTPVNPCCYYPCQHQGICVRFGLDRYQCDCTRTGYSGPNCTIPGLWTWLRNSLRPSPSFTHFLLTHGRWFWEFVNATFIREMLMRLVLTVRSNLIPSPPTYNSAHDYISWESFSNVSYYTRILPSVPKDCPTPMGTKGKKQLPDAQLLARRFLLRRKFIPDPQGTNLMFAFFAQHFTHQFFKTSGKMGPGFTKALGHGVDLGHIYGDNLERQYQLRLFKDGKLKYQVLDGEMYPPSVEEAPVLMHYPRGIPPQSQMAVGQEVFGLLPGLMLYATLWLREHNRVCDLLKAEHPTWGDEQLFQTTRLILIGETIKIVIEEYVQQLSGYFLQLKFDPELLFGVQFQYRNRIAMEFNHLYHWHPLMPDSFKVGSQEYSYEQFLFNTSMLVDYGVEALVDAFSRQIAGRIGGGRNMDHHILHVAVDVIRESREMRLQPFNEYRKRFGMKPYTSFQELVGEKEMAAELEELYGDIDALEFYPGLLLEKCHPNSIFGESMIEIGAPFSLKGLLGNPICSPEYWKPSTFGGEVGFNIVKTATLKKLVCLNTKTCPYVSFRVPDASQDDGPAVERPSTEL

Which results are given for `CCC(CCC(C)C1CCC2C3CCC4=CC(=O)CCC4(C)C3CCC12C)C(C)C` (centres unmarked) [Compound 2, 17-(5-ethyl-6-methylheptan-2-yl)-10,13-dimethyl-1,2,6,7,8,9,10,11,12,13,14,15,16,17-tetradecahydro-3H-cyclopenta[a]phenanthren-3-one]?
inhibition at 62.5 µg/mL [1]: 32.5 ± 0.65%; inhibition at 125 µg/mL [1]: 37.7 ± 0.45%; inhibition at 250 µg/mL [1]: 44.86 ± 0.02%; inhibition at 500 µg/mL [1]: 51.67 ± 0.11%; inhibition at 1000 µg/mL [1]: 57.6 ± 1.18%; inhibition at 62.5 µg/mL ([2]; 62.50 μg/mL, read-out: % COX-2 Inhibition): 61.9 ± 1.13%; inhibition at 125 µg/mL ([2]; 125 μg/mL, read-out: % COX-2 Inhibition): 68.3 ± 0.64%; inhibition at 250 µg/mL ([2]; 250 μg/mL, read-out: % COX-2 Inhibition): 73.34 ± 0.63%; inhibition at 500 µg/mL ([2]; 500 μg/mL, read-out: % COX-2 Inhibition): 78.3 ± 0.64%; inhibition at 1000 µg/mL ([2]; 1000 μg/mL, read-out: % COX-2 Inhibition): 83.17 ± 0.72%; IC50 ([2]; read-out: COX-2 IC50 (converted)): 20.5 µM
